Measured values reported in US10004786B2 (Zealand Pharma A/S, priority 2009, dated 2018).
Numbered stars: 1 amine (or outer) side, 2 acyl side, 3 side chain; on linkers, the order of the positions; unused ones are H or OH. Bridge positions count the residues as written; N and C are the ends. Square brackets hold non-standard residues; d marks the D form. Side chains are listed from the residue outwards. Peptide text beside a SMILES is read from it. * marks the point of attachment. γGlu = O=C(O)[C@H](CCC(=O)[*:2])N[*:1]; Palmitoyl = CCCCCCCCCCCCCCCC(=O)*; Aib = CC(C)(N)C(=O)O

Experiments:
[1] = Pharmacokinetic screening in mouse plasma after subcutaneous administration; type: in vivo; conditions: sc, mice, 100 nmol/kg s.c., * = only two time points used for calculation
Experimental: Mice were dosed 100 nmol/kg subcutaneously (s.c.). The mice were sacrificed and the blood collected at the following time points; 0.5, 2, 4, 6, 16 and 24 h. Plasma samples were analyzed using protein precipitation, followed by solid phase extraction (SPE) and liquid chromatography mass spectrometry (LC-MS).
Pharmacokinetic profiles were determined for various acylated compounds.

[2] = Body weight gain in high fat fed C57BL/6J mice (10 days); type: in vivo; conditions: short term high fat-fed C57BL/6J mice; for body weight gain, high dose: 5 nmol/kg b.i.d. s.c.
Experimental: C57Bl/6J male mice, 6 weeks old, were acclimatized in their new environment for 4 weeks with free access to high fat diet (HFD) (D12492, Research Diet Inc., New Brunswick, USA) and water. The animals were injected s.c. with 100 μl vehicle for a period of three days to acclimatize the animals to handling and injections, prior to initiation of peptide treatment. […] Throughout the study, body weights were recorded daily and used to administer the body weight-corrected doses of peptide. All animals were sacrificed on the same day by cervical dislocation.
C57Bl/6J male mice on high fat diet (HFD) were treated (b.i.d.; s.c.) (0.5 and 5 nmol/kg) or vehicle. Body weights were recorded daily and used to administer the body weight-corrected doses of peptide throughout the study. Data are shown as mean±SEM in FIG. 7.

SMILES	half-life [1] [h]	body weight gain, high dose [2]	body weight gain, low dose ([2]; 0.5 nmol/kg b.i.d. s.c.)
CCCCCCCCCCCCCCCC(=O)N[C@@H](CCC(=O)NCCCC[C@H](NC(=O)[C@H](CO)NC(=O)[C@H](CC(=O)O)NC(=O)[C@H](CC(C)C)NC(=O)[C@H](Cc1ccc(O)cc1)NC(=O)[C@H](CCCCN)NC(=O)[C@H](CO)NC(=O)[C@H](Cc1ccc(O)cc1)NC(=O)[C@H](CC(=O)O)NC(=O)[C@H](CO)NC(=O)[C@@H](NC(=O)[C@H](Cc1ccccc1)NC(=O)[C@@H](NC(=O)CNC(=O)[C@H](CCC(N)=O)NC(=O)[C@H](CO)NC(=O)[C@@H](N)Cc1c[nH]cn1)[C@@H](C)O)[C@@H](C)O)C(=O)N[C@@H](C)C(=O)N[C@@H](C)C(=O)N[C@@H](Cc1c[nH]cn1)C(=O)N[C@@H](CC(=O)O)C(=O)N[C@@H](Cc1ccccc1)C(=O)N[C@H](C(=O)N[C@@H](CCC(=O)O)C(=O)N[C@@H](Cc1c[nH]c2ccccc12)C(=O)N[C@@H](CC(C)C)C(=O)N[C@@H](CC(C)C)C(=O)N[C@@H](CCCNC(=N)N)C(=O)N[C@@H](C)C(N)=O)C(C)C)C(=O)O [Compound 3] (H-HSQGTFTSDYSKYLDSK([γGlu-Palmitoyl])AAHDFVEWLLRA-NH2)	–	significantly decreased body weight gain at the high dose	–
CCCCCCCCCCCCCCCC(=O)N[C@@H](CCC(=O)NCCCC[C@H](NC(=O)[C@H](C)NC(=O)[C@H](C)NC(=O)[C@H](CCCCN)NC(=O)[C@H](CO)NC(=O)[C@H](CC(=O)O)NC(=O)[C@H](CC(C)C)NC(=O)[C@H](Cc1ccc(O)cc1)NC(=O)[C@H](CCCCN)NC(=O)[C@H](CO)NC(=O)[C@H](Cc1ccc(O)cc1)NC(=O)[C@H](CC(=O)O)NC(=O)[C@H](CO)NC(=O)[C@@H](NC(=O)[C@H](Cc1ccccc1)NC(=O)[C@@H](NC(=O)CNC(=O)[C@H](CCC(N)=O)NC(=O)[C@H](CO)NC(=O)[C@@H](N)Cc1c[nH]cn1)[C@@H](C)O)[C@@H](C)O)C(=O)N[C@@H](CC(=O)O)C(=O)N[C@@H](Cc1ccccc1)C(=O)N[C@H](C(=O)N[C@@H](CCC(=O)O)C(=O)N[C@@H](Cc1c[nH]c2ccccc12)C(=O)N[C@@H](CC(C)C)C(=O)N[C@@H](CC(C)C)C(=O)N[C@@H](CCCNC(=N)N)C(=O)N[C@@H](C)C(N)=O)C(C)C)C(=O)O [Compound 4] (H-HSQGTFTSDYSKYLDSKAAK([γGlu-Palmitoyl])DFVEWLLRA-NH2)	2	–	–
CCCCCCCCCCCCCCCC(=O)N[C@@H](CCC(=O)NCCCC[C@H](NC(=O)[C@H](CC(C)C)NC(=O)[C@H](Cc1c[nH]c2ccccc12)NC(=O)[C@H](CCC(=O)O)NC(=O)[C@@H](NC(=O)[C@H](Cc1ccccc1)NC(=O)[C@H](CC(=O)O)NC(=O)[C@H](Cc1c[nH]cn1)NC(=O)[C@H](C)NC(=O)[C@H](C)NC(=O)[C@H](CCCCN)NC(=O)[C@H](CO)NC(=O)[C@H](CC(=O)O)NC(=O)[C@H](CC(C)C)NC(=O)[C@H](Cc1ccc(O)cc1)NC(=O)[C@H](CCCCN)NC(=O)[C@H](CO)NC(=O)[C@H](Cc1ccc(O)cc1)NC(=O)[C@H](CC(=O)O)NC(=O)[C@H](CO)NC(=O)[C@@H](NC(=O)[C@H](Cc1ccccc1)NC(=O)[C@@H](NC(=O)CNC(=O)[C@H](CCC(N)=O)NC(=O)[C@H](CO)NC(=O)[C@@H](N)Cc1c[nH]cn1)[C@@H](C)O)[C@@H](C)O)C(C)C)C(=O)N[C@@H](CCCNC(=N)N)C(=O)N[C@@H](C)C(N)=O)C(=O)O [Compound 5] (H-HSQGTFTSDYSKYLDSKAAHDFVEWLK([γGlu-Palmitoyl])RA-NH2)	5.3	–	–
CCCCCCCCCCCCCCCC(=O)N[C@@H](CCC(=O)NCCCC[C@H](NC(=O)[C@H](CO)NC(=O)[C@H](CC(=O)O)NC(=O)[C@H](CC(C)C)NC(=O)[C@H](Cc1ccc(O)cc1)NC(=O)[C@H](CCCCN)NC(=O)[C@H](CO)NC(=O)[C@H](Cc1ccc(O)cc1)NC(=O)[C@H](CC(=O)O)NC(=O)[C@H](CO)NC(=O)[C@@H](NC(=O)[C@H](Cc1ccccc1)NC(=O)[C@@H](NC(=O)CNC(=O)[C@H](CCC(N)=O)NC(=O)C(C)(C)NC(=O)[C@@H](N)Cc1c[nH]cn1)[C@@H](C)O)[C@@H](C)O)C(=O)N[C@@H](C)C(=O)N[C@@H](C)C(=O)N[C@@H](CCCNC(=N)N)C(=O)N[C@@H](CC(=O)O)C(=O)N[C@@H](Cc1ccccc1)C(=O)N[C@H](C(=O)N[C@@H](C)C(=O)N[C@@H](Cc1c[nH]c2ccccc12)C(=O)N[C@@H](CC(C)C)C(=O)N[C@@H](CC(C)C)C(=O)N[C@@H](CCCNC(=N)N)C(=O)N[C@@H](C)C(N)=O)C(C)C)C(=O)O [Compound 9] (H-H[Aib]QGTFTSDYSKYLDSK([γGlu-Palmitoyl])AARDFVAWLLRA-NH2)	2.4	–	–
CCCCCCCCCCCCCCCC(=O)N[C@@H](CCC(=O)NCCCC[C@H](NC(=O)[C@H](CO)NC(=O)[C@H](CC(=O)O)NC(=O)[C@H](CC(C)C)NC(=O)[C@H](Cc1ccc(O)cc1)NC(=O)[C@H](CCCCN)NC(=O)[C@H](CO)NC(=O)[C@H](Cc1ccc(O)cc1)NC(=O)[C@H](CC(=O)O)NC(=O)[C@H](CO)NC(=O)[C@@H](NC(=O)[C@H](Cc1ccccc1)NC(=O)[C@@H](NC(=O)CNC(=O)[C@H](CCC(N)=O)NC(=O)C(C)(C)NC(=O)[C@@H](N)Cc1c[nH]cn1)[C@@H](C)O)[C@@H](C)O)C(=O)N[C@@H](C)C(=O)N[C@@H](C)C(=O)N[C@@H](Cc1c[nH]cn1)C(=O)N[C@@H](CC(=O)O)C(=O)N[C@@H](Cc1ccccc1)C(=O)N[C@H](C(=O)N[C@H]1CCC(=O)NCCCC[C@@H](C(=O)N[C@@H](C)C(N)=O)NC(=O)[C@H](CC(C)C)NC(=O)[C@H](CC(C)C)NC(=O)[C@H](Cc2c[nH]c3ccccc23)NC1=O)C(C)C)C(=O)O [Compound 13] (H-H[Aib]QGTFTSDYSKYLDSK([γGlu-Palmitoyl])AAHDFVEWLLKA-NH2; lactam 24-28)	6.4	–	–

Continued, in another order:

half-life [1] [h]	SMILES	body weight gain, high dose [2]	body weight gain, low dose ([2]; 0.5 nmol/kg b.i.d. s.c.)
5.8	CCCCCCCCCCCCCCCC(=O)N[C@@H](CCC(=O)NCCCC[C@H](NC(=O)[C@H](CC(=O)O)NC(=O)[C@H](CC(C)C)NC(=O)[C@H](Cc1ccc(O)cc1)NC(=O)[C@H](CCCCN)NC(=O)[C@H](CO)NC(=O)[C@H](Cc1ccc(O)cc1)NC(=O)[C@H](CC(=O)O)NC(=O)[C@H](CO)NC(=O)[C@@H](NC(=O)[C@H](Cc1ccccc1)NC(=O)[C@@H](NC(=O)CNC(=O)[C@H](CCC(N)=O)NC(=O)[C@H](CO)NC(=O)[C@@H](N)Cc1c[nH]cn1)[C@@H](C)O)[C@@H](C)O)C(=O)N[C@@H](CCCCN)C(=O)N[C@@H](C)C(=O)N[C@@H](C)C(=O)N[C@@H](Cc1c[nH]cn1)C(=O)N[C@@H](CC(=O)O)C(=O)N[C@@H](Cc1ccccc1)C(=O)N[C@H](C(=O)N[C@@H](CCC(=O)O)C(=O)N[C@@H](Cc1c[nH]c2ccccc12)C(=O)N[C@@H](CC(C)C)C(=O)N[C@@H](CC(C)C)C(=O)N[C@@H](CCCNC(=N)N)C(=O)N[C@@H](C)C(N)=O)C(C)C)C(=O)O [Compound 2] (H-HSQGTFTSDYSKYLDK([γGlu-Palmitoyl])KAAHDFVEWLLRA-NH2)	–	–
4.8	CCCCCCCCCCCCCCCC(=O)N[C@@H](CCC(=O)NCCCC[C@H](NC(=O)[C@H](CC(C)C)NC(=O)[C@H](CC(C)C)NC(=O)[C@H](Cc1c[nH]c2ccccc12)NC(=O)[C@H](CCC(=O)O)NC(=O)[C@@H](NC(=O)[C@H](Cc1ccccc1)NC(=O)[C@H](CC(=O)O)NC(=O)[C@H](Cc1c[nH]cn1)NC(=O)[C@H](C)NC(=O)[C@H](C)NC(=O)[C@H](CCCCN)NC(=O)[C@H](CO)NC(=O)[C@H](CC(=O)O)NC(=O)[C@H](CC(C)C)NC(=O)[C@H](Cc1ccc(O)cc1)NC(=O)[C@H](CCCCN)NC(=O)[C@H](CO)NC(=O)[C@H](Cc1ccc(O)cc1)NC(=O)[C@H](CC(=O)O)NC(=O)[C@H](CO)NC(=O)[C@@H](NC(=O)[C@H](Cc1ccccc1)NC(=O)[C@@H](NC(=O)CNC(=O)[C@H](CCC(N)=O)NC(=O)[C@H](CO)NC(=O)[C@@H](N)Cc1c[nH]cn1)[C@@H](C)O)[C@@H](C)O)C(C)C)C(=O)N[C@@H](C)C(N)=O)C(=O)O [Compound 6] (H-HSQGTFTSDYSKYLDSKAAHDFVEWLLK([γGlu-Palmitoyl])A-NH2)	only at the low dose	significantly decreased body weight gain
6	CCCCCCCCCCCCCCCC(=O)N[C@@H](CCC(=O)NCCCC[C@H](NC(=O)[C@H](CC(C)C)NC(=O)[C@H](CC(C)C)NC(=O)[C@H](Cc1c[nH]c2ccccc12)NC(=O)[C@H](CCC(=O)O)NC(=O)[C@@H](NC(=O)[C@H](Cc1ccccc1)NC(=O)[C@H](CC(=O)O)NC(=O)[C@H](Cc1c[nH]cn1)NC(=O)[C@H](C)NC(=O)[C@H](C)NC(=O)[C@H](CCCCN)NC(=O)[C@H](CO)NC(=O)[C@H](CC(=O)O)NC(=O)[C@H](CC(C)C)NC(=O)[C@H](Cc1ccc(O)cc1)NC(=O)[C@H](CCCCN)NC(=O)[C@H](CO)NC(=O)[C@H](Cc1ccc(O)cc1)NC(=O)[C@H](CC(=O)O)NC(=O)[C@H](CO)NC(=O)[C@@H](NC(=O)[C@H](Cc1ccccc1)NC(=O)[C@@H](NC(=O)CNC(=O)[C@H](CCC(N)=O)NC(=O)C(C)(C)NC(=O)[C@@H](N)Cc1c[nH]cn1)[C@@H](C)O)[C@@H](C)O)C(C)C)C(=O)N[C@@H](C)C(N)=O)C(=O)O [Compound 12] (H-H[Aib]QGTFTSDYSKYLDSKAAHDFVEWLLK([γGlu-Palmitoyl])A-NH2)	significantly decreased body weight gain at the high dose	–
